Legend:
Type in all cases: in vivo
barnyard grass [1] = assay: Test Example 1: weedkilling efficacy, preemergent weed treatment in the submerged state; A: barnyard grass; details: treatment dosage 320 g/ha
In short: (§1)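 Pre-emergence paddy test: weed seeds sown in submerged alluvial soil (4 cm water), 2.5-leaf rice transplanted, water-diluted emulsion applied to water surface at sowing at stated g/ha. Scored at 3 weeks, greenhouse 25–30 °C.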

bulrush [2] = assay: Test Example 1: weedkilling efficacy, preemergent weed treatment in the submerged state; B: bulrush; details: treatment dosage 320 g/ha
In short: as §1

oval-leafed pondweed [3] = assay: Test Example 1: weedkilling efficacy, preemergent weed treatment in the submerged state; C: oval-leafed pondweed; details: treatment dosage 320 g/ha
In short: as §1

transplanted rice = assay: Test Example 1: preemergent weed treatment in the submerged state, effect on crop; a: transplanted rice; details: treatment dosage 320 g/ha
In short: as §1

barnyard grass [4] = assay: Test Example 2: weedkilling efficacy, growth period weed treatment in the submerged state; A: barnyard grass; details: treatment dosage 320 g/ha
In short: (§2)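 Seedlings at 1-2 leaves in 4 cm-deep submerged alluvial soil received emulsion formulations on the water surface, dosed per hectare; effects were judged 3 weeks on.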

bulrush [5] = assay: Test Example 2: weedkilling efficacy, growth period weed treatment in the submerged state; B: bulrush; details: treatment dosage 320 g/ha
In short: as §2

oval-leafed pondweed [6] = assay: Test Example 2: weedkilling efficacy, growth period weed treatment in the submerged state; C: oval-leafed pondweed; details: treatment dosage 320 g/ha
In short: as §2

crabgrass = assay: Test Example 3: weedkilling efficacy through soil treatment; D: crabgrass; details: soil treatment, treatment dosage 320 g/ha
In short: (§3)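 Crop and weed responses were judged three weeks after a uniform surface spray of the water-diluted emulsion at the given g/ha rate. Seeds sat beneath about 1.5 cm of sterilized diluvial soil, and boxes stood in a greenhouse at 25 to 30° C.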

green foxtail = assay: Test Example 3: weedkilling efficacy through soil treatment; E: green foxtail; details: soil treatment, treatment dosage 320 g/ha
In short: as §3

barnyard grass [7] = assay: Test Example 3: weedkilling efficacy through soil treatment; F: barnyard grass; details: soil treatment, treatment dosage 320 g/ha
Description: (§4) Weedkilling Efficacy Test Through Soil Treatment
(§5) Sterilized diluvial soil was introduced into 21 cm long, 13 cm wide, 7 cm deep plastic boxes, and seeds of crabgrass, green foxtail, barnyard grass, wild oat, black-grass, Italian ryegrass, common wind-grass, Indian mallow, redroot pigweed, fig-leafed goosefoot, chickweed, catchweed, birds-eye speedwell, corn, soybean, rice, wheat, beet and rapeseed were each spot-sown, and covered with about 1.5 cm of soil. Next, emulsions of compounds of the present invention prepared according to compounding example 2 were diluted with water to give the specified dosages, and applied uniformly onto the soil surface with a small sprayer. The plants were grown by placing the plastic boxes in a greenhouse at 25 to 30° C., and 3 weeks after the pesticide treatment the effect on each type of plant was investigated on the basis of the assessment criteria of test example 1.
(§6) A: barnyard grass, B: bulrush, C: oval-leafed pondweed, D: crabgrass, E: green foxtail, F: barnyard grass, G: wild oat, H: black-grass, I: Italian ryegrass, J: common wind-grass, K: Indian mallow, L: redroot pigweed, M: fig-leafed goosefoot, N: chickweed, O: catchweed, p: birds-eye speedwell, a: transplanted rice, b: directly sown rice, c: corn, d: soybean, e: wheat, f: beet, g: rapeseed
(§7) Further, pesticide dosage (g/ha) indicates the concentration regulated such that treatment was with only the stated number of grams (g), when calculated per hectare (ha).

wild oat = assay: Test Example 3: weedkilling efficacy through soil treatment; G: wild oat; details: soil treatment, treatment dosage 320 g/ha
In short: as §3

black-grass = assay: Test Example 3: weedkilling efficacy through soil treatment; H: black-grass; details: soil treatment, treatment dosage 320 g/ha
In short: as §3

Italian ryegrass = assay: Test Example 3: weedkilling efficacy through soil treatment; I: Italian ryegrass; details: soil treatment, treatment dosage 320 g/ha
In short: as §3

common wind-grass = assay: Test Example 3: weedkilling efficacy through soil treatment; J: common wind-grass; details: soil treatment, treatment dosage 320 g/ha
Description: as §4, §5, §6, §7

Indian mallow = assay: Test Example 3: weedkilling efficacy through soil treatment; K: Indian mallow; details: soil treatment, treatment dosage 320 g/ha
In short: as §3

redroot pigweed = assay: Test Example 3: weedkilling efficacy through soil treatment; L: redroot pigweed; details: soil treatment, treatment dosage 320 g/ha
In short: as §3

fig-leafed goosefoot = assay: Test Example 3: weedkilling efficacy through soil treatment; M: fig-leafed goosefoot; details: soil treatment, treatment dosage 320 g/ha
In short: as §3

chickweed = assay: Test Example 3: weedkilling efficacy through soil treatment; N: chickweed; details: soil treatment, treatment dosage 320 g/ha
In short: as §3

birds-eye speedwell = assay: Test Example 3: weedkilling efficacy through soil treatment; p: birds-eye speedwell; details: soil treatment, treatment dosage 320 g/ha
In short: as §3

directly sown rice = assay: Test Example 3: soil treatment, effect on crop; b: directly sown rice; details: soil treatment, treatment dosage 320 g/ha
In short: as §3

corn = assay: Test Example 3: soil treatment, effect on crop; c: corn; details: soil treatment, treatment dosage 320 g/ha
In short: as §3

soybean = assay: Test Example 3: soil treatment, effect on crop; d: soybean; details: soil treatment, treatment dosage 320 g/ha
In short: as §3

wheat = assay: Test Example 3: soil treatment, effect on crop; e: wheat; details: soil treatment, treatment dosage 320 g/ha
In short: as §3

beet = assay: Test Example 3: soil treatment, effect on crop; f: beet; details: soil treatment, treatment dosage 320 g/ha
In short: as §3

rapeseed = assay: Test Example 3: soil treatment, effect on crop; g: rapeseed; details: soil treatment, treatment dosage 320 g/ha
Description: as §4, §5, §6, §7

SMILES | A: barnyard grass, weed kill grade (barnyard grass [1]) | B: bulrush, weed kill grade (bulrush [2]) | C: oval-leafed pondweed, weed kill grade (oval-leafed pondweed [3]) | a: transplanted rice, effect on crop grade (transplanted rice) | A (barnyard grass) weedkilling efficacy grade (barnyard grass [4]) | B (bulrush) weedkilling efficacy grade (bulrush [5]) | C (oval-leafed pondweed) weedkilling efficacy grade (oval-leafed pondweed [6]) | D: crabgrass, weedkilling efficacy grade (crabgrass) | E: green foxtail, weedkilling efficacy grade (green foxtail) | F: barnyard grass, weedkilling efficacy grade (barnyard grass [7]) | G: wild oat, weedkilling efficacy grade (wild oat) | H: black-grass, weedkilling efficacy grade (black-grass) | I: Italian ryegrass, weedkilling efficacy grade (Italian ryegrass) | J: common wind-grass, weedkilling efficacy grade (common wind-grass) | K: Indian mallow, weedkilling efficacy grade (Indian mallow) | L: redroot pigweed, weedkilling efficacy grade (redroot pigweed) | M: fig-leafed goosefoot, weedkilling efficacy grade (fig-leafed goosefoot) | N: chickweed, weedkilling efficacy grade (chickweed) | P: birds-eye speedwell, weedkilling efficacy grade (birds-eye speedwell) | b: directly sown rice, effect on crop grade (directly sown rice) | further results
CC(C)(C(=O)Nc1cc(OC(F)F)cc(Cl)n1)N1COCN(c2ccccc2)C1=O [A-2-34] | 5 (weed kill ratio 90% or more, (practically complete withering)) | 5 (weed kill ratio 90% or more, (practically complete withering)) | 5 (weed kill ratio 90% or more, (practically complete withering)) | 3 (weed kill ratio 40% or more, less than 70%) | 5 (weed kill ratio 90% or more, (practically complete withering)) | 5 (weed kill ratio 90% or more, (practically complete withering)) | 5 (weed kill ratio 90% or more, (practically complete withering)) | 5 (weed kill ratio 90% or more, (practically complete withering)) | 5 (weed kill ratio 90% or more, (practically complete withering)) | 5 (weed kill ratio 90% or more, (practically complete withering)) | 5 (weed kill ratio 90% or more, (practically complete withering)) | 5 (weed kill ratio 90% or more, (practically complete withering)) | 5 (weed kill ratio 90% or more, (practically complete withering)) | 5 (weed kill ratio 90% or more, (practically complete withering)) | 0 (weed kill ratio 5% or less (practically no effect)) | 0 (weed kill ratio 5% or less (practically no effect)) | 4 (weed kill ratio 70% or more, less than 90%) | 4 (weed kill ratio 70% or more, less than 90%) | 4 (weed kill ratio 70% or more, less than 90%) | 4 (weed kill ratio 70% or more, less than 90%) | c: corn, effect on crop grade (corn): 0 (weed kill ratio 5% or less (practically no effect)); d: soybean, effect on crop grade (soybean): 0 (weed kill ratio 5% or less (practically no effect)); e: wheat, effect on crop grade (wheat): 0 (weed kill ratio 5% or less (practically no effect)); f: beet, effect on crop grade (beet): 4 (weed kill ratio 70% or more, less than 90%); g: rapeseed, effect on crop grade (rapeseed): 1 (weed kill ratio 5% or more, less than 20%)
CC(C)(C(=O)Nc1cc(C(F)(F)F)cc(F)n1)N1COCN(c2ccccc2)C1=O [A-2-22] | 5 (weed kill ratio 90% or more, (practically complete withering)) | 5 (weed kill ratio 90% or more, (practically complete withering)) | 5 (weed kill ratio 90% or more, (practically complete withering)) | 5 (weed kill ratio 90% or more, (practically complete withering)) | 5 (weed kill ratio 90% or more, (practically complete withering)) | 5 (weed kill ratio 90% or more, (practically complete withering)) | 5 (weed kill ratio 90% or more, (practically complete withering)) | 5 (weed kill ratio 90% or more, (practically complete withering)) | 5 (weed kill ratio 90% or more, (practically complete withering)) | 5 (weed kill ratio 90% or more, (practically complete withering)) | 5 (weed kill ratio 90% or more, (practically complete withering)) | 5 (weed kill ratio 90% or more, (practically complete withering)) | 5 (weed kill ratio 90% or more, (practically complete withering)) | 5 (weed kill ratio 90% or more, (practically complete withering)) | 4 (weed kill ratio 70% or more, less than 90%) | 4 (weed kill ratio 70% or more, less than 90%) | 4 (weed kill ratio 70% or more, less than 90%) | 4 (weed kill ratio 70% or more, less than 90%) | 5 (weed kill ratio 90% or more, (practically complete withering)) | 5 (weed kill ratio 90% or more, (practically complete withering)) | c: corn, effect on crop grade (corn): 0 (weed kill ratio 5% or less (practically no effect)); d: soybean, effect on crop grade (soybean): 4 (weed kill ratio 70% or more, less than 90%); e: wheat, effect on crop grade (wheat): 0 (weed kill ratio 5% or less (practically no effect)); f: beet, effect on crop grade (beet): 4 (weed kill ratio 70% or more, less than 90%); g: rapeseed, effect on crop grade (rapeseed): 4 (weed kill ratio 70% or more, less than 90%)
